The values that follow come from PMC3043298, “Development of Novel In Silico Model to Predict Corneal Permeability for Congeneric Drugs: A QSPR Approach” (Journal of Biomedicine and Biotechnology, 2011).

What is called AUC is the area under the concentration-time curve, a measure of exposure. Read a high AUC as more exposure. As usually defined, the Cmax is the maximum level reached in the sampled fluid or tissue. By Tmax is commonly meant the time at which the peak concentration occurs.

The nature of series [1]: Experimentally derived Δlog P by shake flask method (OECD No. 107 and 117). It counts as physicochemical. The settings on record: difference of log P(o/w) and log P(cyclohexane/water).
A further series is described as follows: in vivo. The settings on record: both, New Zealand albino, rabbit; for AUC / Cmax / Tmax: topical or ocular. The procedure: In both groups, individual fluoroquinolones were dissolved at concentration of 0.1%. Thus, the total fluoroquinolones concentration in group A and group B were 0.4% and 0.5%, respectively. Sterile boric acid (1.9% w/v) in water was used as the aqueous media and the final formulations were filtered using 0.22 μ filter and autoclaved further before use.
Study protocol and experimental procedures were approved by the Institutional Animal Ethics Committee of All India Institute of Medical Sciences (AIIMS), New Delhi, India. New Zealand albino rabbits of either sex (1.5–2.0 kg) were obtained from Central Animal Facility, AIIMS. Animals were housed at standard laboratory conditions temperature-controlled room at 24 ± 2°C and humidity 55 ± 15% and given food and water ad libitum. All experiments were performed in accordance to the Association for Research in Vision and Ophthalmology (ARVO) statement for the use of animals in ophthalmic and vision research.
The sterile cocktail formulations of group A and group B were individually instilled (50 μL) on the lower fornix of rabbit eyes (n = 4) with the help of a calibrated micropipette. […] For each time point, a volume amounting to 50 μL of aqueous humor was aspirated through the corneal surface. The aqueous humor samples obtained were stored at −80°C until quantification by HPLC.
A Thermo Finnigan (Thermo Electron Corporation, USA) HPLC equipped with degasser, quaternary pump, autosampler, and PDA detector was employed for quantification of fluoroquinolones in samples. In the chromatographic quantification, analytical separation was performed using a C18 Symmetry Shield column (4.6 × 150 mm, 5 μm, Waters, USA) under a gradient flow of methanol, acetonitrile, and potassium phosphate buffer (20 mM, pH 2.5) at different ratio and time. For each spiked compound an external calibration curve was plotted and the analyte's spectra was assessed by matching them with custom made PDA spectra of inbuilt library of Chromquest version 4 (Thermo Electron Corporation, USA).
The dried concentrate was reconstituted with 100 μL mixture of water and acetonitrile (1 : 1), and 20 μL of the obtained supernatant was injected for quantification.
In Vivo Data Permeability coefficients (logPC) were obtained from controlled in vivo experiment conducted in rabbits using cassette dosing (N-in-One) approach.

Where a name gives a salt, the structure may show the parent alone.

Regarding `COc1c(N2CCNC(C)C2)c(F)cc2c(=O)c(C(=O)O)cn(C3CC3)c12` (stereo not shown) [Gatifloxacin], in series [1], the “ΔlogP (Cyclohexane-Octanol)” value is 0.526. For the same compound, in the series “in vivo”, the “logPC (30 min)” value is −5.006, the “logPC (240 min)” value is −6.628, the AUC came out at 1180 ng·h/mL and the peak level (Cmax) was 682 ± 904 ng/mL. Besides, the Tmax in “in vivo” is 0.5 h.

Take `C[C@H]1COc2c(N3CCN(C)CC3)c(F)cc3c(=O)c(C(=O)O)cn1c23` [Levofloxacin]: in series [1], the “ΔlogP (Cyclohexane-Octanol)” value amounted to 0.734. Besides, the Tmax in “in vivo” was 1 h.

Regarding `CCn1cc(C(=O)O)c(=O)c2cc(F)c(N3CCNC(C)C3)c(F)c21` (stereo not shown) [Lomefloxacin HCl, Lomefloxacin], the “ΔlogP (Cyclohexane-Octanol)” value in series [1] came out at 1.113. In the series “in vivo”, the “logPC (30 min)” value is on record as −5.519, the “logPC (240 min)” value was −6.859, the AUC is 833 ng·h/mL and the Cmax stood at 266 ± 46 ng/mL. Besides, the Tmax in the series “in vivo” is 1 h.

As for `COc1c(N2C[C@@H]3CCCN[C@@H]3C2)c(F)cc2c(=O)c(C(=O)O)cn(C3CC3)c12` [Moxifloxacin], in the series “in vivo”, the AUC worked out at 1040 ng·h/mL, the Cmax amounted to 594 ± 294 ng/mL and the Tmax is 0.5 h.

Regarding `CCn1cc(C(=O)O)c(=O)c2cc(F)c(N3CCNCC3)cc21` [Norfloxacin], the “ΔlogP (Cyclohexane-Octanol)” value in series [1] came to 0.051. In addition, in the series “in vivo”, the “logPC (30 min)” value is given as −5.051, the “logPC (240 min)” value is on record as −6.382, the AUC amounted to 2850 ng·h/mL and the concentration peaked (Cmax) at 456 ± 59 ng/mL. Further, the Tmax in the series “in vivo” was 1 h.

For the compound `CC1COc2c(N3CCN(C)CC3)c(F)cc3c(=O)c(C(=O)O)cn1c23` (stereo not shown) [Ofloxacin], the “ΔlogP (Cyclohexane-Octanol)” value in series [1] was 0.759. Further, the Tmax in “in vivo” was 1 h.

On to `C[C@@H]1CN(c2c(F)c(N)c3c(=O)c(C(=O)O)cn(C4CC4)c3c2F)C[C@H](C)N1` [Sparfloxacin], for which the “ΔlogP (Cyclohexane-Octanol)” value in series [1] is given as 1.025. Besides, in the series “in vivo”, the “logPC (30 min)” value was −4.753, the “logPC (240 min)” value is −6.396, the AUC was 1770 ng·h/mL and the Cmax is 1150 ± 514 ng/mL. Moreover, the Tmax in the series “in vivo” is 0.5 h.
